# Measurements: paper PMC8443589, “Modelling human liver fibrosis in the context of non-alcoholic steatohepatitis using a microphysiological system” (Communications Biology, 2021)
# System: liver MPS NASH model (PHH, KC and HSC co-cultures, high fat)
# Assay: Cell health in dosed NASH microtissues: tissue density (Hoechst) and albumin production (ELISA)
# Assay type: cell-based, human
# Settings: for cytotoxicity in NASH microtissues: QD for 10 days
# Method: Following 10 days of compound treatment (Supp. Fig. 6a), NASH microtissues were assessed for the production of inflammatory and fibrotic biomarkers (Fig. 3a), the expression of pro-fibrotic genes (Fig. 3b) and the expression of collagen-1 and alpha SMA (Fig. 3c, d). […] Crucially using the developed quantitative imaging approach, both OCA and ELF abrogated α-SMA expression in a concentration-dependent manner by up to 50% and collagen-1 deposition was reduced by up to 35% (Fig. 3d).
# Soluble biomarkers in cell culture medium from the MPS were analysed by enzyme-linked immunosorbent assay (ELISA); IL-6 was measured by Human IL-6 DuoSet ELISA (R&D Systems); MCP-1 was measured by Human CCL2/MCP-1 DuoSet ELISA (R&D Systems); pro-collagen 1 was measured by Human Pro-Collagen I α1 DuoSet (R&D Systems); TIMP-1 was measured by Human TIMP-1 Quantikine ELISA Kit (R&D Systems); Fibronectin was measured by Human Fibronectin DuoSet ELISA (R&D Systems); YKL-40 was measured by Human Chitinase 3-like 1 Quantikine ELISA Kit (R&D Systems); Albumin secretion was measured by Human Albumin AssayMax™ ELISA kit (Assay Pro, St. Charles, MO). For all assays, the manufacturer’s protocol was followed.
# Supplemental Figure 6 – Treatment of NASH microtissues in MPS platform with Obeticholic acid and […]
# PHH, KC and HSC co-cultures were cultured in the MPS platform under high fat conditions and dosed with varying concentrations of Obeticholic acid (OCA) and Elafibranor (ELF) dosed QD for 10 days, following an initial 4-day pre-culture phase. A) Overview of the experimental timeline. B) Tissue density of scaffolds from each control was assessed by quantifying Hoechst staining in each FOV (8 FOV per culture) at the end of the study. C) Albumin production between conditions was compared by ELISA at two timepoints. All datapoint are shown and error bars highlight means ± SD.
# (1 picture or pasted object on this page, not shown here)
"Albumin production (higher doses, 10 days of compound treatment)",Structure (SMILES),cytotoxicity in NASH microtissues
slightly reduce albumin production,CSc1ccc(C(=O)/C=C/c2cc(C)c(OC(C)(C)C(=O)O)c(C)c2)cc1 [Elafibranor],does not cause cytotoxicity
–,CC[C@H]1[C@@H](O)[C@@H]2[C@H](CC[C@]3(C)[C@@H]([C@H](C)CCC(=O)O)CC[C@@H]23)[C@@]2(C)CC[C@@H](O)C[C@@H]12 [Obeticholic acid],does not cause cytotoxicity
